What was measured:
Assay type in all cases: cell-based
MDA−MB−231 3D networks = assay: 3D bioprinted culture cytotoxicity (WST-1); settings: 72 h, mean ± SEM
HT29 cells = assay: Cellular uptake of Pt by ICP-MS; settings: for Intracellular Concentration: HT29, 3 µM; for Intracellular/extracellular ratio: HT29, extracellular 3 µM
Method in brief: (§1)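 HT29 and MDA-MB-231 cells (10^6/well) exposed to 3 µM Pt(II) or Pt(IV) complex for 0–30 h, washed with cold PBS, digested in 69% HNO3. Pt measured by ICP-MS with ^193Ir internal standard against external standards; given as nmol/10^6 cells or µM/cell, mean ±SEM of three experiments in triplicate.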

MDA−MB−231 cells = assay: Cellular uptake of Pt by ICP-MS; settings: for Intracellular Concentration: MDA−MB−231, 3 µM; for Intracellular/extracellular ratio: MDA−MB−231, extracellular 3 µM
Method in brief: as §1

SMILES: N[C@H]1CCCC[C@@H]1N.O=[N+]([O-])[O-].O=[N+]([O-])[O-].[Pt+2].c1cnc2c(c1)ccc1cccnc12 [[Pt(1,10-phenanthroline)(1S,2S-diaminocyclohexane)](NO3)2]
- IC50 (MDA−MB−231 3D networks): 2.84 ± 1.56 µM
- Intracellular Concentration (HT29 cells; 0 h): 0.61 nmol/10^6 cells
- Intracellular Concentration (HT29 cells; 0.5 h): 0.85 nmol/10^6 cells
- Intracellular Concentration (HT29 cells; 1 h): 0.72 nmol/10^6 cells
- Intracellular Concentration (HT29 cells; 3 h): 2.77 nmol/10^6 cells
- Intracellular Concentration (HT29 cells; 6 h): 5.95 nmol/10^6 cells
- Intracellular Concentration (HT29 cells; 12 h): 12.59 nmol/10^6 cells
- Intracellular Concentration (HT29 cells; 24 h): 15.26 nmol/10^6 cells
- Intracellular Concentration (HT29 cells; 30 h): 16.99 nmol/10^6 cells
- Intracellular/extracellular ratio (HT29 cells; 0 h): 95.39
- Intracellular/extracellular ratio (HT29 cells; 0.5 h): 133.55
- Intracellular/extracellular ratio (HT29 cells; 1 h): 112.44
- Intracellular/extracellular ratio (HT29 cells; 3 h): 435.59
- Intracellular/extracellular ratio (HT29 cells; 6 h): 935.29
- Intracellular/extracellular ratio (HT29 cells; 12 h): 1979.17
- Intracellular/extracellular ratio (HT29 cells; 24 h): 2397.59
- Intracellular Concentration (MDA−MB−231 cells; 0 h): 0.40 nmol/10^6 cells
- Intracellular Concentration (MDA−MB−231 cells; 0.5 h): 0.46 nmol/10^6 cells
- Intracellular Concentration (MDA−MB−231 cells; 1 h): 0.80 nmol/10^6 cells
- Intracellular Concentration (MDA−MB−231 cells; 3 h): 0.81 nmol/10^6 cells
- Intracellular Concentration (MDA−MB−231 cells; 6 h): 1.03 nmol/10^6 cells
- Intracellular Concentration (MDA−MB−231 cells; 12 h): 2.59 nmol/10^6 cells
- Intracellular Concentration (MDA−MB−231 cells; 24 h): 3.01 nmol/10^6 cells
- Intracellular Concentration (MDA−MB−231 cells; 30 h): 4.79 nmol/10^6 cells
- Intracellular/extracellular ratio (MDA−MB−231 cells; 0 h): 63.45
- Intracellular/extracellular ratio (MDA−MB−231 cells; 0.5 h): 72.01
- Intracellular/extracellular ratio (MDA−MB−231 cells; 1 h): 126.21
- Intracellular/extracellular ratio (MDA−MB−231 cells; 3 h): 127.55
- Intracellular/extracellular ratio (MDA−MB−231 cells; 6 h): 161.09
- Intracellular/extracellular ratio (MDA−MB−231 cells; 12 h): 407.32
- Intracellular/extracellular ratio (MDA−MB−231 cells; 24 h): 473.33
- Intracellular/extracellular ratio (MDA−MB−231 cells; 30 h): 752.93

Source: PMC11274883, “Anticancer Effect of Pt^[sequence], Pt^II5MESS, Pt^II56MESS and Their Platinum(IV)-Dihydroxy Derivatives against Triple-Negative Breast Cancer and Cisplatin-Resistant Colorectal Cancer” (Cancers, 2024)
